Values of other authors, collected in patent US12005095B2, “Eutectic extraction solvents, extraction methods by eutectigenesis using said solvents, and extracts derived from said extraction methods” (Givaudan France Naturals SAS, priority 2015, dated 2024).

System: cellular melanogenesis

O=C1c2c(O)cc(O)cc2O[C@H](c2ccc(O)c(O)c2)[C@H]1O [taxifolin]
effect on cellular melanogenesis, in words: inhibit cellular melanogenesis
